According to the supplement of paper PMC8976852:
± gives the standard deviation of the averaged measurements.

Experiments:
Assay in all cases: activity (1 - area under the dose-response curve within the screened range) (fraction); higher = more sensitive
Details in all cases: treatment time: 72 h
HCM-SANG-0270-C20 = system: HCM-SANG-0270-C20 (colorectal cancer organoid)
Experimental: (§1)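 Patient-derived cancer organoids (colorectal and oesophageal, HCM-SANG models) were grown for up to 6 months in 5% or 80% ECM (BME-2), then seeded in 384-well plates on an ECM layer and treated with 72 compounds for 3 days. Each compound used a 7-point half-log dilution series spanning a 1000-fold range, in technical triplicate and biological duplicate. Dose-response curves were fitted with a non-linear mixed effects model; fits with RMSE > 0.3 were removed, and activity = 1 - AUC within the screened dose range (0 = no activity, 1 = maximum).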

HCM-SANG-0266-C20 = system: HCM-SANG-0266-C20 (colorectal cancer organoid)
Experimental: as §1

HCM-SANG-0532-C20 = system: HCM-SANG-0532-C20 (colorectal cancer organoid)
Experimental: as §1

HCM-SANG-0291-C15 = system: HCM-SANG-0291-C15 (oesophageal cancer organoid)
Experimental: as §1

[1] = ECM percentage in culture prior to screening 5 %
[2] = ECM percentage in culture prior to screening 80 %

| SMILES | activity (HCM-SANG-0270-C20; [1]) | activity (HCM-SANG-0270-C20; [2]) | activity (HCM-SANG-0266-C20; [1]) | activity (HCM-SANG-0266-C20; [2]) | activity (HCM-SANG-0532-C20; [1]) | activity (HCM-SANG-0532-C20; [2]) | activity (HCM-SANG-0291-C15; [1]) | activity (HCM-SANG-0291-C15; [2]) |
| --- | --- | --- | --- | --- | --- | --- | --- | --- |
| O=C(CCCCCCC(=O)Nc1ccccc1)NO [Vorinostat] | 0.163 ± 0.017 | 0.153 ± 0.028 | 0.225 ± 0.032 | 0.172 ± 0.032 | 0.132 ± 0.022 | 0.211 ± 0.034 | 0.232 ± 0.021 | 0.222 ± 0.03 |
| CC(C)C[C@H](NC(=O)[C@H](Cc1ccccc1)NC(=O)c1cnccn1)B(O)O [Bortezomib] | 0.16 ± 0.023 | 0.167 ± 0.03 | 0.201 ± 0.023 | 0.228 ± 0.015 | 0.201 ± 0.028 | 0.212 ± 0.031 | 0.208 ± 0.027 | 0.234 ± 0.034 |
| COCC1(CO)C(=O)C2CCN1CC2 (stereo not drawn) [PRIMA-1MET] | 0.0251 ± 0.01 | 0.0283 ± 0.0083 | 0.0344 ± 0.016 | 0.0318 ± 0.016 | 0.074 ± 0.023 | 0.0388 ± 0.016 | 0.0344 ± 0.019 | 0.0328 ± 0.011 |
| Cc1cc(Nc2cc(N3CCN(C)CC3)nc(Sc3ccc(NC(=O)C4CC4)cc3)n2)n[nH]1 [Tozasertib] | 0.0983 ± 0.062 | 0.0668 ± 0.034 | 0.222 ± 0.09 | 0.228 ± 0.033 | 0.16 ± 0.076 | 0.123 ± 0.046 | 0.0578 ± 0.037 | 0.0466 ± 0.014 |
| CN(C)CCCOc1ccc(-c2ccc3ncc4c(c3c2)n(C2CCOCC2)c(=O)n4C)cn1 [AZD0156] | 0.0254 ± 0.013 | 0.0244 ± 0.0078 | 0.0443 ± 0.024 | 0.0475 ± 0.024 | 0.0433 ± 0.022 | 0.0427 ± 0.017 | 0.0259 ± 0.013 | 0.0316 ± 0.022 |
| CC/C(=C(\c1ccccc1)c1ccc(OCCN(C)C)cc1)c1ccccc1 [Tamoxifen] | 0.0375 ± 0.013 | 0.0425 ± 0.025 | 0.0883 ± 0.053 | 0.0314 ± 0.011 | 0.0364 ± 0.025 | 0.0524 ± 0.021 | 0.0279 ± 0.013 | 0.0235 ± 0.0053 |
| CC[C@@H]1C(=O)N(C)c2cnc(Nc3ccc(C(=O)NC4CCN(C)CC4)cc3OC)nc2N1C1CCCC1 [BI-2536] | 0.305 ± 0.17 | 0.311 ± 0.11 | 0.439 ± 0.041 | 0.436 ± 0.036 | 0.292 ± 0.087 | 0.335 ± 0.046 | 0.429 ± 0.043 | 0.464 ± 0.06 |
| CCc1cncnc1N1CCN(Cc2nc3ccc(C(F)(F)F)cc3[nH]2)CC1 | 0.127 ± 0.026 | 0.162 ± 0.031 | 0.206 ± 0.033 | 0.155 ± 0.029 | 0.222 ± 0.04 | 0.426 ± 0.041 | 0.0688 ± 0.038 | 0.0744 ± 0.019 |
| CCNC(=O)c1noc(-c2cc(C(C)C)c(O)cc2O)c1-c1ccc(CN2CCOCC2)cc1 [Luminespib] | 0.111 ± 0.061 | 0.0622 ± 0.041 | 0.319 ± 0.046 | 0.322 ± 0.024 | 0.338 ± 0.087 | 0.291 ± 0.014 | 0.0294 ± 0.011 | 0.0466 ± 0.038 |
| CCNC(=O)C[C@@H]1N=C(c2ccc(Cl)cc2)c2cc(OC)ccc2-n2c(C)nnc21 [I-BET-762] | 0.0441 ± 0.019 | 0.0339 ± 0.019 | 0.121 ± 0.041 | 0.0782 ± 0.04 | 0.0448 ± 0.021 | 0.0841 ± 0.035 | 0.0724 ± 0.037 | 0.068 ± 0.015 |
| CC(=O)O[C@@]12CO[C@@H]1C[C@H](O)[C@@]1(C)C(=O)[C@H](O)C3=C(C)[C@@H](OC(=O)[C@H](O)[C@@H](NC(=O)OC(C)(C)C)c4ccccc4)C[C@@](O)([C@@H](OC(=O)c4ccccc4)[C@H]21)C3(C)C [Docetaxel] | 0.0873 ± 0.042 | 0.14 ± 0.08 | 0.237 ± 0.033 | 0.19 ± 0.031 | 0.128 ± 0.028 | 0.158 ± 0.017 | 0.161 ± 0.058 | 0.188 ± 0.05 |
